{"source": "patent US10786475B2", "about": "“Method for preventing, treating, or improving fatty liver by administering effective amounts of azelaic acid to a subject” (Korea University Research and Business Foundation, priority 2018, dated 2020)", "test_system": "fatty liver-induced mouse", "experiment": "Fatty liver inhibitory effect in high-fat diet fatty liver-induced wild-type C57BL/6J mouse", "assay_type": "in vivo", "settings": "WT mouse", "description": "Mice used in the example, which were an eight-week-old C57BL/6J model, were purchased from Samtako, and Olfr544 KO mice were manufactured by Macrogen based on the C57BL/6J model using a CRISPR/Cas9 system. All experiments performed in the example are compliant to a protocol approved by the Animal Experiment Ethics Committee at Korea University (Protocol No. KUIACUC-20170322-1). The mice were acclimated at 21 to 25° C. under a 50 to 60% relative humidity condition for 12 hours before being used in the experiments, and a total of 18 mice were treated with an AzA diluted with distilled water at 50 mg/kg of body weight and distilled water as a control through oral administration for 6 weeks. The mice used in the experiments were fed a high-fat diet containing 60% fat (D12492, Research Diets, Inc) to induce fatty liver, and then a body weight was measured every week.\nThe measurement of the concentration of triglycerides in liver tissue was performed by homogenizing the obtained liver tissue of a mouse in 600 μL of acetone (Daejung, Korea), storing the homogenate at 4° C. for 24 hours, and obtaining a fat part by centrifugation at 12000 rpm for 10 minutes. The fat part was dried, dissolved in 95% ethanol, quantified using a Cobas C11 autoanalyzer (Roche, Basel, Switzerland), and normalized with a liver weight.\nRNA was extracted from liver tissue, and the expression of PPARα and PPARα downstream genes such as Acox1, Cpt1a and Hmgcs2 were analyzed by qPCR according to the method of Example 3-1 described above.\nTo evaluate fatty acid oxidation, 100 mg of liver tissue was homogenized in a 0.25 M cold sucrose solution, centrifuged at 600 rpm and 4° C. thereby obtaining a supernatant, and then 50 μL of 10% Triton X-100 was added to 450 μL of the supernatant. Subsequently, 5 μL of the sample was mixed with 950 μL of 50 mM Tris-HCl, 10 μL of 20 mM NAD, 3 μL of 0.33 M dithiothreitol, 5 μL of 1.5% BSA, 5 μL of 2% Triton X-100, 10 μL of 10 mM CoA, and 10 μL of 1 mM FAD. The mixture was mixed with 2 μL of 5 mM palmitoyl-CoA, reacted at 37° C. and analyzed at 340 nm for 5 minutes using a spectrophotometer.\nA C57BL/6J mouse and an Olfr544 KO mouse were treated with HFD and an AzA for 6 weeks and housed in a metabolic cage for three days, and the result at day 3 was analyzed as an experimental result. An oxygen consumption amount (VO2) and a carbon dioxide production amount (VCO2) were analyzed using an Oxylet Physiocage System (Panlab/Harvard apparatus, Cornella, Spain) and suiteMETABOLISM (V2.2.01, Panlab) software. A respiratory quotient (RQ) was calculated using the formula VCO2/VO2, and energy expenditure was analyzed using the formula EE=VO2×1.11×(3.815+1.232×RQ). The oxidation of a free fatty acid was calculated using the formula (1.6946×VO2)−(1.7012×VCO2).\nAn AzA (100 mg/kg) was intraperitoneally administered, and then concentration of a glycerol, which is a body fat decomposition marker, was measured. […] To measure glucose resistance and insulin resistance, a glucose and insulin resistance test was performed under a condition, in which glucose ([…]) and insulin (0.35 unit/kg/bw) are administered to a mouse.", "key": {"[1]": {"settings": "HFD and AzA for 6 weeks, metabolic cage day 3"}, "[2]": {"settings": "high-fat diet, AzA 50 mg/kg oral, 6 weeks"}, "[3]": {"settings": "high-fat diet, AzA 50 mg/kg oral, 6 weeks, compared with control group"}}, "data": [{"compound": "O=C(O)CCCCCCCC(=O)O", "note": "[AzA, nonanedioic acid]", "values": [{"measurement": "glucose resistance (glucose resistance test)", "result": "significantly improved"}, {"measurement": "insulin resistance (insulin resistance test)", "result": "significantly improved"}, {"measurement": "abdominal fat (microCT)", "setting": "AzA 50 mg/kg/day", "result": "significantly decreased"}, {"measurement": "total fat amount (microCT)", "setting": "AzA 50 mg/kg/day", "result": "significantly decreased"}, {"measurement": "blood glycerol concentration (body fat decomposition marker)", "setting": "AzA 100 mg/kg intraperitoneally", "result": "stimulated the decomposition of body fats"}, {"measurement": "oxidation of free fatty acids (indirect calorimetric analysis)", "setting": "[1]", "result": "increase"}, {"measurement": "respiratory quotient (indirect calorimetric analysis)", "setting": "[1]", "result": "decrease"}, {"measurement": "expression of PPARα and a target gene thereof in liver tissue", "setting": "[2]", "result": "significantly increased"}, {"measurement": "triglyceride concentration in liver tissue", "setting": "[2]", "result": "decreased"}, {"measurement": "body weight", "setting": "[3]", "result": "decreased"}, {"measurement": "fatty acid oxidation rate in liver tissue", "setting": "[3]", "result": "increased"}]}]}
